Measured values taken from patent US10174016B2 (BAYER AKTIENGESELLSCHAFT, priority 2014, dated 2019).
Read-outs that look alike come from different tables or passages of the source. One block for each molecule: values may come before it.

Tests used:
human P2X3 receptor = human P2X3 receptor (Homo sapiens (Human), UniProt P56373); assay: Intracellular calcium measurement (FLIPR, Fluo-4) of antagonist activity at human P2X3 receptors; type: cell-based; details: read-out: hP2X3 IC50
Outline: (§1)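 Cells expressing human P2X3 or P2X2/3, loaded with Fluo-4, preincubated 30 min at 37° C. with compound (1% DMSO final), then challenged with α,β-Me-ATP at its EC80. Peak FLIPR fluorescence over 90 sec gave % response; IC50, maximal inhibition and Hill slope from triplicates.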

human P2X2/3 receptor = human P2X2/3 receptor (Homo sapiens (Human), UniProt P56373+Q9UBL9); assay: Intracellular calcium measurement (FLIPR, Fluo-4) of antagonist activity at human P2X2/3 receptors; type: cell-based; details: human P2X2/3, FLIPR calcium assay, agonist α,β-Me-ATP; read-out: hP2X2/3 IC50
Chain of human P2X2/3 receptor (P56373 whole entry): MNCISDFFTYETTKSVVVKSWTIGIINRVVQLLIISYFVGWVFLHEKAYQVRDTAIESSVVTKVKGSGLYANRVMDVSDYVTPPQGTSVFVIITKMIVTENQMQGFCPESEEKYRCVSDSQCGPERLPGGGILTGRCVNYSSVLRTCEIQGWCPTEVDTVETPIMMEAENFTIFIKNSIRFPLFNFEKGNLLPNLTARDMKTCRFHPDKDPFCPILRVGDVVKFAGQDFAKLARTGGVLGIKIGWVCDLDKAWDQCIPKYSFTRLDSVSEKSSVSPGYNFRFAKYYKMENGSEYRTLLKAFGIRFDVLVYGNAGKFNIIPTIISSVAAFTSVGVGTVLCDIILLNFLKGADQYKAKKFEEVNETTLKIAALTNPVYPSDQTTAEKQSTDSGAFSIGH
Chain of human P2X2/3 receptor (Q9UBL9 whole entry): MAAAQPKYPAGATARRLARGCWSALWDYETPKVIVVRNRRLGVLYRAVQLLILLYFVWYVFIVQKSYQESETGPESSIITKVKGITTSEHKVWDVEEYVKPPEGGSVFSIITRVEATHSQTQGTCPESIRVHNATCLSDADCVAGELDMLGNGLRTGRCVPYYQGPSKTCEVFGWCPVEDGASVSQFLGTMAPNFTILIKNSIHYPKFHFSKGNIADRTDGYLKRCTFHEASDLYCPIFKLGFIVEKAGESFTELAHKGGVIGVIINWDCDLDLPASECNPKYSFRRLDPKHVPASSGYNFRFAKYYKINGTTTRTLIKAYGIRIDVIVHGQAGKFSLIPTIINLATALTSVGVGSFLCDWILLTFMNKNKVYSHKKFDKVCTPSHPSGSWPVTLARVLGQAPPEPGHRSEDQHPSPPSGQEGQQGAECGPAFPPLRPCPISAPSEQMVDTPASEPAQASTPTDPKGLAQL
Outline: as §1

[1] = human P2X3, FLIPR calcium assay, agonist α,β-Me-ATP

Chain of human P2X3 receptor (P56373 whole entry): as the sequence (P56373 whole entry) above

- IC50 (human P2X3 receptor; [1]): 2 nM
- IC50 (human P2X2/3 receptor): 14 nM
SMILES: Cc1cc(Oc2cc(C(=O)N[C@H](C)c3cnc(C(F)(F)F)nc3)cc(-c3ncc(C)s3)c2)ccn1 [Example 103, 3-[(2-Methylpyridin-4-yl)oxy]-5-(5-methyl-1,3-thiazol-2-yl)-N-{(1R)-1-[2-(trifluoromethyl)pyrimidin-5-yl]ethyl}benzamide]

- IC50 (human P2X3 receptor; [1]): 51 nM
- IC50 (human P2X2/3 receptor): 377 nM
SMILES: Cc1cnc(CNC(=O)c2cc(Oc3ccnc(C)c3)cc(-c3ncc(C)s3)c2)cn1 [Example 104, N-[(5-Methylpyrazin-2-yl)methyl]-3-[(2-methylpyridin-4-yl)oxy]-5-(5-methyl-1,3-thiazol-2-yl)benzamide]

- IC50 (human P2X3 receptor; [1]): 16 nM
- IC50 (human P2X2/3 receptor): 41 nM
SMILES: Cc1cc(Oc2cc(C(=O)N[C@H](C)c3cnc(C)nc3)cc(-c3ncc(C)s3)c2)ccn1 [Example 106, 3-[(2-methylpyridin-4-yl)oxy]-N-[(1R)-1-(2-methylpyrimidin-5-yl)ethyl]-5-(5-methyl-1,3-thiazol-2-yl)benzamide]

- IC50 (human P2X3 receptor; [1]): 9 nM
- IC50 (human P2X2/3 receptor): 17 nM
SMILES: Cc1ccc([C@@H](C)NC(=O)c2cc(Oc3ccnc(C)c3)cc(-c3ncc(C)s3)c2)cn1 [Example 107, N-[(1R)-1-(6-methylpyridin-3-yl)ethyl]-3-[(2-methylpyridin-4-yl)oxy]-5-(5-methyl-1,3-thiazol-2-yl)benzamide]

- IC50 (human P2X3 receptor; [1]): 235 nM
- IC50 (human P2X2/3 receptor): 2410 nM
SMILES: Cc1cnc([C@@H](C)NC(=O)c2cc(Oc3nnc(C)s3)cc(-c3ncc(C)s3)c2)cn1 [Example 109, N-[(1R)-1-(5-Methylpyrazin-2-yl)ethyl]-3-[(5-methyl-1,3,4-thiadiazol-2-yl)oxy]-5-(5-methyl-1,3-thiazol-2-yl)benzamide]

The remaining lines, values behind:

SMILES: Cc1ccc(Oc2cc(C(=O)N[C@H](C)c3cnc(C(F)(F)F)nc3)cc(-c3ncc(C)s3)c2)cn1 [Example 108, 3-[(6-Methylpyridin-3-yl)oxy]-5-(5-methyl-1,3-thiazol-2-yl)-N-{(1R)-1-[2-(trifluoromethyl)pyrimidin-5-yl]ethyl}benzamide]
- IC50 (human P2X3 receptor; [1]): 11 nM
- IC50 (human P2X2/3 receptor): 83 nM

SMILES: Cc1ccc([C@@H](C)NC(=O)c2cc(Oc3nnc(C)s3)cc(-c3ncc(C)s3)c2)nn1 [Example 110, N-[(1R)-1-(6-Methylpyridazin-3-yl)ethyl]-3-[(5-methyl-1,3,4-thiadiazol-2-yl)oxy]-5-(5-methyl-1,3-thiazol-2-yl)benzamide]
- IC50 (human P2X3 receptor; [1]): 114 nM
- IC50 (human P2X2/3 receptor): 1450 nM

SMILES: Cc1cnc(-c2cc(Oc3nnc(C)s3)cc(C(=O)N[C@H](C)c3cnc(C(F)(F)F)nc3)c2)s1 [Example 111, 3-[(5-Methyl-1,3,4-thiadiazol-2-yl)oxy]-5-(5-methyl-1,3-thiazol-2-yl)-N-[(1R)-1-[2-(trifluoromethyl)pyrimidin-5-yl]ethyl]benzamide]
- IC50 (human P2X3 receptor; [1]): 16 nM
- IC50 (human P2X2/3 receptor): 380 nM

SMILES: Cc1cnc([C@@H](C)NC(=O)c2cc(Oc3nccs3)cc(-c3ncc(C)s3)c2)cn1 [Example 112, N-[(1R)-1-(5-Methylpyrazin-2-yl)ethyl]-3-(5-methyl-1,3-thiazol-2-yl)-5-(1,3-thiazol-2-yloxy)benzamide]
- IC50 (human P2X3 receptor): 61 nM
- IC50 (human P2X2/3 receptor): 772 nM

SMILES: Cc1ccc([C@@H](C)NC(=O)c2cc(Oc3nccs3)cc(-c3ncc(C)s3)c2)nn1 [Example 113, N-[(1R)-1-(6-Methylpyridazin-3-yl)ethyl]-3-(5-methyl-1,3-thiazol-2-yl)-5-(1,3-thiazol-2-yloxy)benzamide]
- IC50 (human P2X3 receptor; [1]): 43 nM
- IC50 (human P2X2/3 receptor): 387 nM

SMILES: Cc1ccc([C@@H](C)NC(=O)c2cc(Oc3nccs3)cc(-c3ncc(C)s3)c2)cn1 [Example 114, N-[(1R)-1-(6-Methylpyridin-3-yl)ethyl]-3-(5-methyl-1,3-thiazol-2-yl)-5-(1,3-thiazol-2-yloxy)benzamide]
- IC50 (human P2X3 receptor; [1]): 38 nM
- IC50 (human P2X2/3 receptor): 414 nM

SMILES: COC(C)(C)COc1cc(C(=O)N[C@H](C)c2ccc(Cl)cn2)cc(-c2ncc(Cl)s2)c1 [Example 115, N-[(1R)-1-(5-Chloropyridin-2-yl)ethyl]-3-(5-chloro-1,3-thiazol-2-yl)-5-(2-methoxy-2-methylpropoxy)benzamide]
- IC50 (human P2X3 receptor; [1]): 15 nM
- IC50 (human P2X2/3 receptor): 187 nM
